Test results: patent US5281604A, “Angiotensin II receptor blocking 2,3,6-substituted quinazolinones” (American Cyanamid Company, priority 1993, dated 1994)
Values joined by “and” are separate entries in the source; they are usually repeats but may differ in a detail not shown here. Identical values can stand only once.

Tested on: ANGIOTENSIN II (AII) VASOPRESSOR RESPONSE
Test: AII Challenge: blockade of the angiotensin II vasopressor response in conscious spontaneously hypertensive rats
Format: in vivo, rat (Male Okamoto-Aoki SHR)
Conditions: 3 mg/kg i.v.
Source text: By administering a compound of this invention to a rat, and then challenging with angiotensin II, a blockage of the vasopressor response is realized.
Conscious Male Okamoto-Aoki SHR, 16-20 weeks old, weighing approximately 330 g are purchased from Charles River Labs (Wilmington, Mass.). Conscious rats are restrained in a supine position with elastic tape. The area at the base of the tail is locally anesthetized by subcutaneous infiltration with 2% procaine. The ventral caudal artery and vein are isolated, and a cannula made of polyethylene (PE) 10-20 tubing (fused together by heat) is passed into the lower abdominal aorta and vena cava, respectively. The cannula is secured, heparinized (1,000 I.U./ml), sealed and the wound is closed. The animals are placed in plastic restraining cages in an upright position. The cannula is attached to a Statham P23Db pressure transducer, and pulsatile blood pressure is recorded to 10-15 minutes with a Gould Brush recorder. (Chan et al., (Drug Development Res., 18:75-94, 1989).
Angiotensin II (human sequence, Sigma Chem. Co., St. Louis, Mo.) of 0.05 and 0.1 ug/kg i.v. is injected into all rats (predosing response). Then a test compound, vehicle or a known angiotensin II antagonist is administered i.v., i.p. or orally to each set of rats. The two doses of angiotensin II are given to each rat again at 30, 60, 90, 120, 180, 240 and 300 minutes post dosing the compound or vehicle. The vasopressor response of angiotensin II is measured for the increase in systolic blood pressure in mmHg. The percentage of antagonism or blockade of the vasopressor response of angiotensin II by a compound is calculated using the vasopressor response (increase in systolic blood pressure) of angiotensin II of each rat predosing the compound as 100%. A compound is considered active if at 30 mg/kg i.v. it antagonized at least 50% of the response.

[1] = AII 0.05 mcg/kg IV, 30 min post dose
[2] = AII 0.05 mcg/kg IV, 60 min post dose
[3] = AII 0.05 mcg/kg IV, 90 min post dose
[4] = AII 0.05 mcg/kg IV, 120 min post dose
[5] = AII 0.05 mcg/kg IV, 180 min post dose
[6] = AII 0.05 mcg/kg IV, 240 min post dose
[7] = AII 0.05 mcg/kg IV, 300 min post dose
[8] = AII 0.1 mcg/kg IV, 30 min post dose
[9] = AII 0.1 mcg/kg IV, 60 min post dose
[10] = AII 0.1 mcg/kg IV, 90 min post dose
[11] = AII 0.1 mcg/kg IV, 120 min post dose
[12] = AII 0.1 mcg/kg IV, 180 min post dose
[13] = AII 0.1 mcg/kg IV, 240 min post dose
[14] = AII 0.1 mcg/kg IV, 300 min post dose

## CCCCc1nc2ccc(C3CC4C(c5ccc(C)cc5)=NOC4O3)cc2c(=O)n1Cc1ccc(-c2ccccc2-c2nnn[nH]2)cc1 (stereo not shown) [Example 12]
[1]
  % Inhibition: 56%
  Average Change: 16.5 mmHg
  Control Before AII (single rat): 220 mmHg and 255 mmHg
  Response After AII (single rat): 233 mmHg and 275 mmHg
  Response Change (single rat): 13 mmHg and 20 mmHg
[2]
  % Inhibition: 53%
  Average Change: 17.5 mmHg
  Control Before AII (single rat): 215 mmHg and 245 mmHg
  Response After AII (single rat): 235 mmHg and 260 mmHg
  Response Change (single rat): 20 mmHg and 15 mmHg
[3]
  % Inhibition: 60%
  Average Change: 15 mmHg
  Control Before AII (single rat): 225 mmHg and 235 mmHg
  Response After AII (single rat): 240 mmHg and 250 mmHg
  Response Change (single rat): 15 mmHg
[4]
  % Inhibition: 45%
  Average Change: 20.5 mmHg
  Control Before AII (single rat): 207 mmHg and 225 mmHg
  Response After AII (single rat): 233 mmHg and 240 mmHg
  Response Change (single rat): 26 mmHg and 15 mmHg
[5]
  % Inhibition: 33%
  Average Change: 25 mmHg
  Control Before AII (single rat): 195 mmHg and 225 mmHg
  Response After AII (single rat): 225 mmHg and 245 mmHg
  Response Change (single rat): 30 mmHg and 20 mmHg
[6]
  % Inhibition: 53%
  Average Change: 17.5 mmHg
  Control Before AII (single rat): 220 mmHg and 230 mmHg
  Response After AII (single rat): 240 mmHg and 245 mmHg
  Response Change (single rat): 20 mmHg and 15 mmHg
[7]
  % Inhibition: 48%
  Average Change: 19.5 mmHg
  Control Before AII (single rat): 220 mmHg and 230 mmHg
  Response After AII (single rat): 245 mmHg and 244 mmHg
  Response Change (single rat): 25 mmHg and 14 mmHg
[8]
  % Inhibition: 53%
  Average Change: 18.5 mmHg
  Control Before AII (single rat): 218 mmHg and 250 mmHg
  Response After AII (single rat): 245 mmHg and 260 mmHg
  Response Change (single rat): 27 mmHg and 10 mmHg
[9]
  % Inhibition: 42%
  Average Change: 22.5 mmHg
  Control Before AII (single rat): 220 mmHg and 240 mmHg
  Response After AII (single rat): 245 mmHg and 260 mmHg
  Response Change (single rat): 25 mmHg and 20 mmHg
[10]
  % Inhibition: 29%
  Average Change: 27.5 mmHg
  Control Before AII (single rat): 220 mmHg and 230 mmHg
  Response After AII (single rat): 250 mmHg and 255 mmHg
  Response Change (single rat): 30 mmHg and 25 mmHg
[11]
  % Inhibition: 23%
  Average Change: 30 mmHg
  Control Before AII (single rat): 205 mmHg and 225 mmHg
  Response After AII (single rat): 240 mmHg and 250 mmHg
  Response Change (single rat): 35 mmHg and 25 mmHg
[12]
  % Inhibition: 42%
  Average Change: 22.5 mmHg
  Control Before AII (single rat): 205 mmHg and 225 mmHg
  Response After AII (single rat): 225 mmHg and 250 mmHg
  Response Change (single rat): 20 mmHg and 25 mmHg
[13]
  % Inhibition: 10%
  Average Change: 35 mmHg
  Control Before AII (single rat): 220 mmHg and 225 mmHg
  Response After AII (single rat): 260 mmHg and 255 mmHg
  Response Change (single rat): 40 mmHg and 30 mmHg
[14]
  % Inhibition: 10%
  Average Change: 35 mmHg
  Control Before AII (single rat): 220 mmHg and 225 mmHg
  Response After AII (single rat): 255 mmHg and 260 mmHg
  Response Change (single rat): 35 mmHg
